Assay results taken from patent EP0070049A1, “Derivative of acetylsalicylic acid having an analgetic, antipyretic, antiphlogistic and bronchosecretolytic activity” (UNIONE CHIMICA MEDICAMENTI- DIFME-S.p.A., priority 1981, dated 1983).

Key:
[1] = system: convulsions abdominales (writhings) induites dans le souris par une injection intrapéritonéale d'acide acétique; assay: Acetic acid writhing test (analgesic activity, Koster and Anderson); assay type: in vivo; settings: for Frequence writhings: souris, 60 minutes après l'administration, ± déviation standard
Excerpt: L'activité analgésique de l'acétylsalicylate de 2(o-méthoxy-phénoxy)éthanol a été évaluée en comparaison avec celle de l'acide acétylsalicylique sur la base de la fréquence des convulsions abdominales (writhings) induites dans le souris par une injection intrapéritonéale d'acide acétique, suivant la technique décrite par Koster et Anderson (Fed. Proc., volume 18, page 412, 1959). Les résultats de l'élaboration statistique des épreuves sont indiqués dans le suivant Tableau 3, dans lequel la fréquence des convulsions est indiquée comme nombre de convulsions par minute ± la déviation standard, et a été mesurée 60 minutes après l'administration; pour les autres valeurs est valable ce qui a été spécifié en relation avec le Tableau 1.

[2] = system: température corporelle, augmentée par l'injection intraveineuse de nucléinate de sodium dans le lapin; assay: Antipyretic activity: rise in body temperature induced by intravenous sodium nucleinate; assay type: in vivo; settings: for Augmentation temperature corporelle - °C ± d.s. après 1 heure: 1 heure après l'administration; for Augmentation temperature corporelle - °C ± d.s. après 2 heures: 2 heures après l'administration; for Augmentation temperature corporelle - °C ± d.s. après 3 heures: 3 heures après l'administration; for Augmentation temperature corporelle - °C ± d.s. après 4 heures: 4 heures après l'administration
Excerpt: L'activité antipyrétique de l'acétylsalicylate de 2(o-méthoxy-phénoxy)éthanol a été evaluée en comparaison avec celle de l'acide acétylsalicylique suivant la méthode, universellement employée, de la mesure de la variation de la température corporelle, augmentée par 1' injection intraveineuse de nucléinate de sodium dans le lapin. Les résultats de l'élaboration statistique des épreuves sont indiqués dans le suivant Tableau 2, dans lequel l'augmentation de la température corporelle est indiquée en °C ± la déviation standard, et a été mesurée 1, 2, 3 et 4 heures après l'administration; pour les autres valeurs est valable ce qui a été spécifié en relation avec le Tableau 1.

[3] = system: oedème induit par carraghénine injectée dans la patte de rats; assay: Carrageenan-induced rat paw oedema (antiphlogistic activity, Winter et al); assay type: in vivo; settings: voie orale; for Volume de l'oedème - ml ± d.s. après 3 heures: 3 heures après le traitement oedémigène; for Volume de l'oedème - ml ± d.s. après 6 heures: 6 heures après le traitement oedémigène
Excerpt: L'activité antiphlogistique de l'acétylsalicylate de 2(o-méthoxy-phénoxy) éthanol a été évaluée en comparaison avec celle de l'acide acétylsalicylique sur la base de la variation de volume de l'oedème induit par carraghénine injectée dans la patte de rats, suivant la technique décrite par Winter et al (Proc. Soc. Exp. Biol. Med., volume III, page 544, 1962). Les résultats de l'élaboration des épreuves sont indiqués dans le Tableau 1, dans lequel le volume de l'oedème est indiqué en millilitres z la déviation standard, et il a été mesuré 3, 4,5 et 6 heures après le traitement oedémigène; la dose de substance est indiquée en milligrammes de substance administrée par voie orale pour chaque kilogramme de poids corporel des rats; les valeurs marquées par * correspondent à une probabilité d'erreur p < 0,05, les valeurs marquées correspondent à une probabilité d'erreur p < 0,01, calculées sur les valeurs des contrôles, et les valeurs indiquées entre parenthèses indiquent l'inhibition en pour-cent calculée par rapport aux contrôles.

rats = settings: rat, in vivo, 500 mg/kg
Excerpt: La toxicité subaiguë de l'acétylsalicylate de 2(o-méthoxy-phénoxy)éthanol a été évaluée en comparaison avec celle de l'acide acétylsalicylique en administrant à des rats, par voie orale, des doses journalières de substance pour 10 jours, et en relevant le nombre des animaux morts, la diminution moyenne de poids des animaux traités et l'incidence des lésions gastriques relevées, distinguées en simple hyperémie, hyperémie accompagnée par hémorragie et hémorragie accompagnée par ulcérations. Les résultats des épreuves sont indiqués dans le Tableau 5, dans lequel la dose de substance administrée est exprimée en mg de substance par kg de poids corporel et par jour, et la diminution moyenne de poids corporel à la fin du traitement est exprimée en grammes.

[4] = system: arbre bronchial de rats Wistar; assay: Bronchosecretolytic activity: pulmonary excretion of fluorescein (Mawatari); assay type: in vivo; settings: rats Wistar, 101,8 mg/Kg
Excerpt: L'activité bronchosécrétolytique de l'acétylsalicylate de 2(o-méthoxy-phénoxy)éthanol a été évaluée en comparaison avec celle du gaïacoléthanol, sur la base de la mesure des variations de la quantité d'indicateur (fluorescéine) trouvée dans l'arbre bronchial de rats Wistar, recueillie au moyen d'un système de lavage standardisé, après injection parentérale de l'indicateur, et mesurée au moyen d'un spectrofluorométre, suivant la méthode décrite par H.Mawatari ("Expérimental studies on the expectorant action of several drugs", Kagoshima Daigakeu Igakeu Zasshi, volume 27, page 561, 1976). Les résultats de l'élaboration statistique des épreuves sont recueillis dans le suivant tableau 4,dans lequel l' excrétion pulmonaire de fluorescéine est exprimée en microgrammes ± la déviation standard, soit dans la quantité totale trouvée, soit dans la quantité pour-cent rapportée à 100 g de poids corporel des rats. Entre parenthèses sont indiquées les valeurs de l'augmentation pour-cent par rapport aux contrôles. Pour les autres valeurs est valable ce qui été précisé en relation au Tableau 1.

## CC(=O)Oc1ccccc1C(=O)O [Acide acétyl-salicylique, acide acétylsalicylique, reference compound]
[1]; 1 h
  inhibition at 100 mg/kg: 30%
  inhibition at 200 mg/kg: 44%
[1]; 100 mg/Kg
  Frequence writhings: *20,5 ± 6,7 convulsions par minute
[1]; 200 mg/Kg
  Frequence writhings: **16,4 ± 5,8 convulsions par minute
[2]; 100 mg/Kg
  inhibition en pour-cent calculée par rapport aux contrôles, après 1 heure: 40 pour-cent
  Augmentation temperature corporelle - °C ± d.s. après 1 heure: 0,75 ± 0,16 °C
  inhibition en pour-cent calculée par rapport aux contrôles, après 2 heures: 46 pour-cent
  Augmentation temperature corporelle - °C ± d.s. après 2 heures: 0,78 ± 0,17 °C
  inhibition en pour-cent calculée par rapport aux contrôles, après 3 heures: 43 pour-cent
  Augmentation temperature corporelle - °C ± d.s. après 3 heures: 0,94 ± 0,12 °C
  inhibition en pour-cent calculée par rapport aux contrôles, après 4 heures: 26 pour-cent
  Augmentation temperature corporelle - °C ± d.s. après 4 heures: 0,55 ± 0,1 °C
[2]; 200 mg/Kg
  inhibition en pour-cent calculée par rapport aux contrôles, après 1 heure: 50 pour-cent
  Augmentation temperature corporelle - °C ± d.s. après 1 heure: 0,62 ± 0,13 °C
  inhibition en pour-cent calculée par rapport aux contrôles, après 2 heures: 51 pour-cent
  Augmentation temperature corporelle - °C ± d.s. après 2 heures: 0,71 ± 0,18 °C
  inhibition en pour-cent calculée par rapport aux contrôles, après 3 heures: 43 pour-cent
  Augmentation temperature corporelle - °C ± d.s. après 3 heures: 0,93 ± 0,16 °C
  inhibition en pour-cent calculée par rapport aux contrôles, après 4 heures: 31 pour-cent
  Augmentation temperature corporelle - °C ± d.s. après 4 heures: 0,52 ± 0,07 °C
[3]; 100 mg/Kg
  inhibition en pour-cent calculée par rapport aux contrôles, après 3 heures: 44,0 pour-cent
  Volume de l'oedème - ml ± d.s. après 3 heures: 0,380 ± 0,21 ml
  inhibition en pour-cent calculée par rapport aux contrôles, après 6 heures: 41,0 pour-cent
  Volume de l'oedème - ml ± d.s. après 6 heures: 0,285 ± 0,18 ml
[3]; 100 mg/Kg, 4,5 heures
  inhibition en pour-cent calculée par rapport aux contrôles, après 4,5 heures: 35,0 pour-cent
[3]; 100 mg/Kg, 4,5 heures après le traitement oedémigène
  Volume de l'oedème - ml ± d.s. après 4,5 heures: 0,395 ± 0,14 ml
[3]; 200 mg/Kg
  inhibition en pour-cent calculée par rapport aux contrôles, après 3 heures: 56,5 pour-cent
  Volume de l'oedème - ml ± d.s. après 3 heures: 0,297 ± 0,17 ml
  inhibition en pour-cent calculée par rapport aux contrôles, après 6 heures: 43,0 pour-cent
  Volume de l'oedème - ml ± d.s. après 6 heures: 0,275 ± 0,18 ml
[3]; 200 mg/Kg, 4,5 heures
  inhibition en pour-cent calculée par rapport aux contrôles, après 4,5 heures: 39,0 pour-cent
[3]; 200 mg/Kg, 4,5 heures après le traitement oedémigène
  Volume de l'oedème - ml ± d.s. après 4,5 heures: 0,370 ± 0,09 ml
rats
  Lésions gastriques Hyperémie: 4
  Lésions gastriques Hyperémie + hémorragie: 3
  Lésions gastriques Hémorragie + ulcérations: 2
  Nombre animaux morts: 6
  Δ poids moyenne: -30 grammes

## COc1ccccc1OCCO [Gaïacol-éthanol, gaïacoléthanol, reference compound]
[4]
  augmentation pour-cent par rapport aux contrôles (excrétion pulmonaire de fluorescéine, quantité totale): +72,2 pour-cent
[4]; rapportée à 100 g de poids corporel, ± déviation standard
  Excrétion pulmonaire de fluorescéine Quantité pour-cent µg/100 g: 0,202 ± 0,034 µg/100 g
[4]; ± déviation standard
  Excrétion pulmonaire de fluorescéine Quantité totale µg: 0,434 ± 0,064 µg
